According to patent publication US8541588B2, “Sulfonamide derivatives” (Pfizer Limited, priority 2009, dated 2013):

The compounds below were run against T1, Nav1.7 (or SCN9A) channel; HEK cells stably transfected with hSCN9A (Homo sapiens, UniProt Q15858) (assay: Nav1.7 block, PatchXpress 7000 automated whole-cell voltage clamp, estimated IC50 (EIC50)). Conditions: estimated IC50; hSCN9A HEK cells, PatchXpress platform; Examples 815-1040.
T1 construct: expressed in transfected cells
Format: cell-based

T1 sequence (Q15858 whole entry): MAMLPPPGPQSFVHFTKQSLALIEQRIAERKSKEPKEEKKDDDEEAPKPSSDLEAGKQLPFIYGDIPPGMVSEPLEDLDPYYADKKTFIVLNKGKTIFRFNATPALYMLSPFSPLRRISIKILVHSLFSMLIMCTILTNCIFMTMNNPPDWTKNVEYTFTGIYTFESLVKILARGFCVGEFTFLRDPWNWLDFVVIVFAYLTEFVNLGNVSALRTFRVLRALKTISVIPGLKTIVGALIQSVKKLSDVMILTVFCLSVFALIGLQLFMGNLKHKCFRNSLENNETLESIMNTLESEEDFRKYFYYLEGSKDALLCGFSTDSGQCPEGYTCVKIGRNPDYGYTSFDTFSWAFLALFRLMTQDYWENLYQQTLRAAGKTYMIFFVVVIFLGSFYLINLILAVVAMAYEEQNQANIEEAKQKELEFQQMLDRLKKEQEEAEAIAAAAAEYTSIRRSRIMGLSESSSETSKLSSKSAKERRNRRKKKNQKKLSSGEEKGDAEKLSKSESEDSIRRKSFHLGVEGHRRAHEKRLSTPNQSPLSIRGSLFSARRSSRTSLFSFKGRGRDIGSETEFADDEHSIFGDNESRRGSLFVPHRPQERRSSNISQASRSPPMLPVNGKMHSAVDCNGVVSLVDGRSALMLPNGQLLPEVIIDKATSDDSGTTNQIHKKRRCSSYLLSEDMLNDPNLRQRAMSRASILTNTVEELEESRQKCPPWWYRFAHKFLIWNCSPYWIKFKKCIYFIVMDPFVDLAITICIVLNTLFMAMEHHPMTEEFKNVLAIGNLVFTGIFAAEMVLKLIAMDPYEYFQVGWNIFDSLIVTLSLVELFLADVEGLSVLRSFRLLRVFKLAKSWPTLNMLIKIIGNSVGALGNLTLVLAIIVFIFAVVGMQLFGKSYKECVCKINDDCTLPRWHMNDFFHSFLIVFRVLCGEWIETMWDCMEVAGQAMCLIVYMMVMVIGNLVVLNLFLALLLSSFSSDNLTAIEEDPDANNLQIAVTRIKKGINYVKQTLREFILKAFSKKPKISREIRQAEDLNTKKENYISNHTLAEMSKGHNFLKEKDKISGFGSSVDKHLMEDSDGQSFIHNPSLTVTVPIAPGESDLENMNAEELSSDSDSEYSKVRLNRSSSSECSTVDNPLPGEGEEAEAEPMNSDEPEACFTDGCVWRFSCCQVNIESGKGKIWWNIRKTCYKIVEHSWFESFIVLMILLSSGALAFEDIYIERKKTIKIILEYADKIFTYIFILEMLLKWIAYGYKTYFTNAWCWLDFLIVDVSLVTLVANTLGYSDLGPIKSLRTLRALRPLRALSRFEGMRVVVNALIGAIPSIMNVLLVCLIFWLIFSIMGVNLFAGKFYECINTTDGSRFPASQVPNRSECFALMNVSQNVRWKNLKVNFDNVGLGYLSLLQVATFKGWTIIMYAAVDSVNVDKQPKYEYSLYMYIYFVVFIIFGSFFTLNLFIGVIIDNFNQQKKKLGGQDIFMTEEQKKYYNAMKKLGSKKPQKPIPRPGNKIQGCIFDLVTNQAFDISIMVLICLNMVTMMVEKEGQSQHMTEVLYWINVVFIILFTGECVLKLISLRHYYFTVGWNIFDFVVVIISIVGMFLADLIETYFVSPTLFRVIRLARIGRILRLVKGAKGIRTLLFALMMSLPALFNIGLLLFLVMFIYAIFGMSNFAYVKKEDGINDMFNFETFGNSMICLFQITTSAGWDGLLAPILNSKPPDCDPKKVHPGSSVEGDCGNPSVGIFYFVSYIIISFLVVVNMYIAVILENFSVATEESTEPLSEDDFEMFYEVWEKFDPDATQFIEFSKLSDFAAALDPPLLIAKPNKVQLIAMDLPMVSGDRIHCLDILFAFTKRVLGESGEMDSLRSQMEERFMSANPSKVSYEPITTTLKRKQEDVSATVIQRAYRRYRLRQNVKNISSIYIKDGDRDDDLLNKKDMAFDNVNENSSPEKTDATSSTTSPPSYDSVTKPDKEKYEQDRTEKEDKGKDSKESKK

Row | SMILES | IC50
1 | O=S(=O)(Nc1cscn1)c1cc(F)c(Oc2ccc(C(F)(F)F)cc2-c2ccnn2C2CNC2)cc1F [Example 841, 4-[2-(1-azetidin-3-yl-1H-pyrazol-5-yl)-4-(trifluoromethyl)phenoxy]-2,5-difluoro-N-1,3-thiazol-4-ylbenzenesulfonamide] | 11 nM
2 | N#Cc1cc(S(=O)(=O)Nc2ncns2)ccc1Oc1ccc(F)cc1C1CCOCC1 [Example 842, 3-cyano-4-[4-fluoro-2-(tetrahydro-2H-pyran-4-yl)phenoxy]-N-1,2,4-thiadiazol-5-ylbenzenesulfonamide] | 96 nM
3 | O=S(=O)(Nc1nncs1)c1cc(Cl)c(Oc2ccc(Cl)cc2-c2ccnnc2)cc1F [Example 843, 5-chloro-4-(4-chloro-2-pyridazin-4-ylphenoxy)-2-fluoro-N-1,3,4-thiadiazol-2-ylbenzenesulfonamide] | 34 nM
4 | O=S(=O)(Nc1cscn1)c1cc(Cl)c(Oc2ccc(Cl)cc2-c2ccnnc2)cc1F [Example 845, 5-chloro-4-(4-chloro-2-pyridazin-4-ylphenoxy)-2-fluoro-N-1,3-thiazol-4-ylbenzenesulfonamide] | 41 nM
5 | O=S(=O)(Nc1ccc(F)cn1)c1cc(F)c(Oc2ccc(Cl)cc2-c2ccnnc2)cc1F [Example 846, 4-(4-chloro-2-pyridazin-4-ylphenoxy)-2,5-difluoro-N-(5-fluoropyridin-2-yl)benzenesulfonamide] | 230 nM
6 | O=S(=O)(Nc1ccncn1)c1ccc(Oc2ccc(Cl)cc2-c2ccnnc2)c(Cl)c1 [Example 847, 3-chloro-4-(4-chloro-2-pyridazin-4-ylphenoxy)-N-pyrimidin-4-ylbenzenesulfonamide] | 130 nM
7 | CCN1CC(n2nccc2-c2cc(F)ccc2Oc2cc(F)c(S(=O)(=O)Nc3ncns3)cc2Cl)C1 [Example 848, 5-chloro-4-{2-[1-(1-ethylazetidin-3-yl)-1H-pyrazol-5-yl]-4-fluorophenoxy}-2-fluoro-N-1,2,4-thiadiazol-5-ylbenzenesulfonamide] | 5.1 nM
8 | Nc1nccc(-c2cc(Cl)ccc2Oc2cc(F)c(S(=O)(=O)Nc3ncns3)cc2F)n1 [Example 849, 4-[2-(2-aminopyrimidin-4-yl)-4-chlorophenoxy]-2,5-difluoro-N-1,2,4-thiadiazol-5-ylbenzenesulfonamide] | 120 nM
9 | N#Cc1ccc(Oc2cc(F)c(S(=O)(=O)Nc3ncns3)cc2Cl)c(-c2cn[nH]c2)c1 [Example 850, 5-chloro-4-[4-cyano-2-(1H-pyrazol-4-yl)phenoxy]-2-fluoro-N-1,2,4-thiadiazol-5-ylbenzenesulfonamide] | 3.2 nM
10 | N#Cc1cc(S(=O)(=O)Nc2ncns2)ccc1Oc1ccc(Cl)cc1-c1cccc(CN2CCC2)c1 [Example 852, 4-{[3′-(azetidin-1-ylmethyl)-5-chlorobiphenyl-2-yl]oxy}-3-cyano-N-1,2,4-thiadiazol-5-ylbenzenesulfonamide] | 1.6 nM
11 | N#Cc1ccc(-c2cc(Cl)ccc2Oc2ccc(S(=O)(=O)Nc3ncns3)cc2C#N)nc1 [Example 853, 4-[4-chloro-2-(5-cyanopyridin-2-yl)phenoxy]-3-cyano-N-1,2,4-thiadiazol-5-ylbenzenesulfonamide] | 740 nM
12 | N#Cc1cc(S(=O)(=O)Nc2ncns2)ccc1Oc1ccc(Cl)cc1-c1cccc(C(=O)N2CCC2)c1 [Example 854, 4-{[3′-(azetidin-1-ylcarbonyl)-5-chlorobiphenyl-2-yl]oxy}-3-cyano-N-1,2,4-thiadiazol-5-ylbenzenesulfonamide] | 6.4 nM
13 | O=C(c1cccc(-c2cc(Cl)ccc2Oc2cc(F)c(S(=O)(=O)Nc3ncns3)cc2F)c1)N1CCC1 [Example 855, 4-{[3′-(azetidin-1-ylcarbonyl)-5-chlorobiphenyl-2-yl]oxy}-2,5-difluoro-N-1,2,4-thiadiazol-5-ylbenzenesulfonamide] | 4.2 nM
14 | O=C(c1cccc(-c2cc(Cl)ccc2Oc2cc(F)c(S(=O)(=O)Nc3cscn3)cc2Cl)c1)N1CCC1 [Example 856, 4-{[3′-(azetidin-1-ylcarbonyl)-5-chlorobiphenyl-2-yl]oxy}-5-chloro-2-fluoro-N-1,3-thiazol-4-ylbenzenesulfonamide] | 22 nM
